Consider 22 molecules from patent US9423396B2, “Bodipy structure fluorescence probes for diverse biological applications” (National University of Singapore, priority 2011, dated 2016).

Series [1] can be described thus: Spectroscopic measurements (absorption, emission, quantum yield, extinction coefficient). The series is classed as physicochemical.
In a further series the test system is Beta TC-6 cells. The experiment in a line: High throughput cell-based screening on acinar, Alpha TC-1 and Beta TC-6 cells. On the set-up: species or system mouse. The note with it: 1 μM, 1 hr to 48 hours, 384-well plates. The protocol:
To discover pancreatic islet selective probes, we expanded the other two types of BODIPY library generated from the original GY (Glucagon Yellow) structure. We started with high throughput cell-based screening using mouse acinar cells composed of exocrine tissue, mouse Alpha TC-1 cells and Beta TC-6 cells composed of endocrine pancreas islets. Those three different types of cells were prepared side by side in 384-well plates and incubated with 1 μM of BODIPY compounds for different incubation times ranging from 1 hr to 48 hours. The fluorescence images were acquired on an automated imaging microscope system ImageXpress Micro™. The fluorescence intensity of the stained cells was analyzed using MetaXpress® image processing software.

The mark [2] stands for this setting: BDNCA library, difference emission minus absorption.
Where [3] appears, read: BDNCA library, extinction coefficient; in M-1 cm-1 (unit assumed).
[4] abbreviates: BDNCA library, fluorescence emission.
Where [5] appears, read: absorption maximum, BDNCA library.
The mark [6] stands for this setting: difference of emission and absorption maxima.
Where [7] appears, read: extinction coefficient, BDNCA library; in M-1 cm-1 (unit assumed).
Setting [8] is: fluorescence emission maximum, BDNCA library.

For `CC1=CC(/C=C/c2cc(C)c(OCc3ccccc3)c(C)c2)=[N+]2C1=C(c1ccc(NC(=O)CCl)cc1)c1cccn1[B-]2(F)F` [BDNCA-16], in series [1] (BDNCA library), the “Qunt. Yield” value turned out to be 0.13. This molecule had an Abs in series [1] (BDNCA library, absorption) of 562 nm. In series [1] (setting [2]), this molecule gave a Flu-Abs of 23. In addition, in series [1] (setting [3]), the ε was 55,469. This molecule also had a Flu in series [1] (setting [4]) of 585. Moreover, the “staining of alpha cells and beta cells compared with acinar cells” value in the series with Beta TC-6 cells is “stained either both alpha cells and beta cells or beta cells only as compared with acinar cells”.
On to `Cc1cc(/C=C/c2ccc(-c3ccccc3)cc2)n2c1C(c1ccc(NC(=O)CCl)cc1)=C1C=CC=[N+]1[B-]2(F)F` [BDNCA-5], for which the “Qunt. Yield” value in series [1] (BDNCA library) turned out to be 0.09. For the same molecule, the Abs in series [1] (BDNCA library, absorption) came to 566 nm. In series [1] (setting [2]), this molecule displayed a Flu-Abs of 23. For the same molecule, the ε in series [1] (setting [3]) was 39,542. Moreover, the Flu in series [1] (setting [4]) is reported as 589. For the same molecule, in the series with Beta TC-6 cells, the “staining of alpha cells and beta cells compared with acinar cells” value was “stained either both alpha cells and beta cells or beta cells only as compared with acinar cells”.
`CC1=CC(/C=C/c2c(Cl)ccc(C)c2F)=[N+]2C1=C(c1ccc(NC(=O)CCl)cc1)c1cccn1[B-]2(F)F` [BDNCA-246]: in series [1] (BDNCA library), the “Qunt. Yield” value was 0.09. This molecule registered an Abs in series [1] (BDNCA library, absorption) of 554 nm. The molecule also displayed a Flu-Abs in series [1] (setting [2]) of 19. In addition, in series [1] (setting [3]), the ε is on record as 43,387. Further, in series [1] (setting [4]), the Flu was 573.
`COc1ccc(/C=C/C2=[N+]3C(=C(c4ccc(NC(=O)CCl)cc4)c4cccn4[B-]3(F)F)C(C)=C2)c(OC)c1C` [BDNCA-347] showed an Abs in series [1] (setting [5]) of 569 nm. For the same molecule, the Flu-Abs in series [1] (setting [6]) is listed as 35. Moreover, the ε in series [1] (setting [7]) is reported as 34,874. Also, in series [1] (setting [8]), the Flu came out at 604. Also, the “Qunt. Yield” value in series [1] (quantum yield, BDNCA library) came out at 0.08.
As for `CCN(CC)c1ccc(/C=C/C2=[N+]3C(=C(c4ccc(NC(=O)CCl)cc4)c4cccn4[B-]3(F)F)C(C)=C2)cc1` [BDNCA-107], the “Qunt. Yield” value in series [1] (BDNCA library) was “weak”. This molecule registered an Abs in series [1] (BDNCA library, absorption) of 624 nm. In addition, the ε in series [1] (setting [3]) was 56,018. Further, in series [1] (setting [4]), the Flu entry is “weak”.
As to `CCOc1cc(/C=C/C2=[N+]3C(=C(c4ccc(NC(=O)CCl)cc4)c4cccn4[B-]3(F)F)C(C)=C2)ccc1O` [BDNCA-397], the Abs in series [1] (setting [5]) came to 573 nm. The molecule also yielded a Flu-Abs in series [1] (setting [6]) of 40. For the same molecule, the ε in series [1] (setting [7]) was 38,444. The Flu in series [1] (setting [8]) turned out to be 613. In addition, the “Qunt. Yield” value in series [1] (quantum yield, BDNCA library) is listed as 0.01.
Consider `CC1=CC(/C=C/c2ccc(/C=C/c3ccccc3)cc2)=[N+]2C1=C(c1ccc(NC(=O)CCl)cc1)c1cccn1[B-]2(F)F` [BDNCA-69], for which, in series [1] (BDNCA library), the “Qunt. Yield” value is reported as 0.09. This molecule also gave an Abs in series [1] (BDNCA library, absorption) of 577 nm. In series [1] (setting [2]), this molecule displayed a Flu-Abs of 33. Further, the ε in series [1] (setting [3]) was 40,641. Also, the Flu in series [1] (setting [4]) is on record as 610.
The molecule `CC1=CC(/C=C/c2ccccc2I)=[N+]2C1=C(c1ccc(NC(=O)CCl)cc1)c1cccn1[B-]2(F)F` [BDNCA-384] registered an Abs in series [1] (setting [5]) of 555 nm. Also, the Flu-Abs in series [1] (setting [6]) stood at 23. In addition, the ε in series [1] (setting [7]) is listed as 60,686. In series [1] (setting [8]), this molecule had a Flu of 578. The “Qunt. Yield” value in series [1] (quantum yield, BDNCA library) is on record as 0.11.
`CC(=O)OCCN(CCOC(C)=O)c1ccc(/C=C/C2=[N+]3C(=C(c4ccc(NC(=O)CCl)cc4)c4cccn4[B-]3(F)F)C(C)=C2)cc1` [BDNCA-114]: the “Qunt. Yield” value in series [1] (BDNCA library) was “weak”. Further, in series [1] (BDNCA library, absorption), the Abs was 608 nm. In addition, the ε in series [1] (setting [3]) was 42,288. For the same molecule, in series [1] (setting [4]), the Flu result is “weak”.
For the molecule `CC1=CC(/C=C/c2ccc(-c3ccccc3)s2)=[N+]2C1=C(c1ccc(NC(=O)CCl)cc1)c1cccn1[B-]2(F)F` [BDNCA-65], the “Qunt. Yield” value in series [1] (BDNCA library) was found to be 0.04. Moreover, the Abs in series [1] (BDNCA library, absorption) is 593 nm. In series [1] (setting [2]), this molecule yielded a Flu-Abs of 37. The ε in series [1] (setting [3]) is 30,755. The molecule also gave a Flu in series [1] (setting [4]) of 630.
Regarding `CC1=CC(/C=C/c2ccccc2Oc2ccc(F)cc2)=[N+]2C1=C(c1ccc(NC(=O)CCl)cc1)c1cccn1[B-]2(F)F` [BDNCA-341], the Abs in series [1] (setting [5]) stood at 558 nm. In series [1] (setting [6]), the Flu-Abs amounted to 22. Besides, the ε in series [1] (setting [7]) is on record as 58,764. In series [1] (setting [8]), this molecule gave a Flu of 580. The “Qunt. Yield” value in series [1] (quantum yield, BDNCA library) was determined as 0.10.
Regarding `COc1cc(OC)c(OC)cc1/C=C/C1=[N+]2C(=C(c3ccc(NC(=O)CCl)cc3)c3cccn3[B-]2(F)F)C(C)=C1` [BDNCA-144], the “Qunt. Yield” value in series [1] (BDNCA library) is “weak”. The molecule also gave an Abs in series [1] (BDNCA library, absorption) of 585 nm. Also, the ε in series [1] (setting [3]) is 62,609. Further, the Flu result in series [1] (setting [4]) is on record as “weak”.
`CC1=CC(/C=C/c2cccc(OC(F)(F)C(F)F)c2)=[N+]2C1=C(c1ccc(NC(=O)CCl)cc1)c1cccn1[B-]2(F)F` [BDNCA-345]: the Abs in series [1] (setting [5]) was determined as 621 nm. Further, in series [1] (setting [7]), the ε is on record as 12,082. Besides, the Flu result in series [1] (setting [8]) is “weak”. For the same molecule, the “Qunt. Yield” value in series [1] (quantum yield, BDNCA library) is listed as “weak”.
For `CCOc1ccccc1/C=C/c1cc(C)c2n1[B-](F)(F)[N+]1=CC=CC1=C2c1ccc(NC(=O)CCl)cc1` [BDNCA-336], the Abs in series [1] (setting [5]) stood at 562 nm. The same molecule came in with a Flu-Abs in series [1] (setting [6]) of 23. The ε in series [1] (setting [7]) is 63,982. The same molecule gave a Flu in series [1] (setting [8]) of 585. For the same molecule, in series [1] (quantum yield, BDNCA library), the “Qunt. Yield” value is 0.12.
On to `COc1ccc(Br)cc1/C=C/c1cc(C)c2n1[B-](F)(F)[N+]1=CC=CC1=C2c1ccc(NC(=O)CCl)cc1` [BDNCA-54], for which the “Qunt. Yield” value in series [1] (BDNCA library) came out at 0.07. The same molecule gave an Abs in series [1] (BDNCA library, absorption) of 562 nm. Moreover, in series [1] (setting [2]), the Flu-Abs was determined as 19. Besides, in series [1] (setting [3]), the ε is on record as 38,169. For the same molecule, the Flu in series [1] (setting [4]) is recorded as 581.
On to `Cc1cc(/C=C/c2cc(Cl)ccc2Cl)n2c1C(c1ccc(NC(=O)CCl)cc1)=C1C=CC=[N+]1[B-]2(F)F` [BDNCA-407], for which, in series [1] (setting [5]), the Abs came to 555 nm. The molecule also displayed a Flu-Abs in series [1] (setting [6]) of 20. For the same molecule, the ε in series [1] (setting [7]) is 42,288. The Flu in series [1] (setting [8]) worked out at 575. Besides, in series [1] (quantum yield, BDNCA library), the “Qunt. Yield” value was 0.07.
For the molecule `CCOc1ccc(/C=C/C2=[N+]3C(=C(c4ccc(NC(=O)CCl)cc4)c4cccn4[B-]3(F)F)C(C)=C2)cc1OC` [BDNCA-63], the “Qunt. Yield” value in series [1] (BDNCA library) was found to be 0.07. In series [1] (BDNCA library, absorption), this molecule gave an Abs of 572 nm. Besides, the Flu-Abs in series [1] (setting [2]) was determined as 51. The ε in series [1] (setting [3]) was 35,149. For the same molecule, the Flu in series [1] (setting [4]) was determined as 623.
The molecule `Cc1cc(/C=C/c2ccc3c(c2)OC(F)(F)O3)n2c1C(c1ccc(NC(=O)CCl)cc1)=C1C=CC=[N+]1[B-]2(F)F` [BDNCA-332] gave an Abs in series [1] (setting [5]) of 556 nm. The same molecule showed a Flu-Abs in series [1] (setting [6]) of 19. The ε in series [1] (setting [7]) is reported as 27,735. Moreover, the Flu in series [1] (setting [8]) was determined as 575. For the same molecule, the “Qunt. Yield” value in series [1] (quantum yield, BDNCA library) came to 0.05.
In the case of `C=CCOc1ccc(/C=C/C2=[N+]3C(=C(c4ccc(NC(=O)CCl)cc4)c4cccn4[B-]3(F)F)C(C)=C2)cc1` [BDNCA-48], in series [1] (BDNCA library), the “Qunt. Yield” value is 0.07. For the same molecule, the Abs in series [1] (BDNCA library, absorption) amounted to 566 nm. This molecule displayed a Flu-Abs in series [1] (setting [2]) of 31. Also, the ε in series [1] (setting [3]) is listed as 44,211. The Flu in series [1] (setting [4]) came to 597.
In the same order, the values of `Cc1cc(/C=C/c2ccccc2C(=O)O)n2c1C(c1ccc(NC(=O)CCl)cc1)=C1C=CC=[N+]1[B-]2(F)F` [BDNCA-191] are 0.06, 556 nm, 18, 24,714 and 574.
In the case of `CC1=CC(/C=C/c2ccc3ccc4cccc5ccc2c3c45)=[N+]2C1=C(c1ccc(NC(=O)CCl)cc1)c1cccn1[B-]2(F)F` [BDNCA-103], the “Qunt. Yield” value in series [1] (BDNCA library) stood at 0.04. The molecule also yielded an Abs in series [1] (BDNCA library, absorption) of 598 nm. This molecule also showed a Flu-Abs in series [1] (setting [2]) of 82. For the same molecule, in series [1] (setting [3]), the ε is listed as 28,558. The Flu in series [1] (setting [4]) is recorded as 680.
Consider `COc1ccc(/C=C/C2=[N+]3C(=C(c4ccc(NC(=O)CCl)cc4)c4cccn4[B-]3(F)F)C(C)=C2)cc1C` [BDNCA-335], for which the Abs in series [1] (setting [5]) stood at 569 nm. In series [1] (setting [6]), the Flu-Abs stood at 33. Moreover, the ε in series [1] (setting [7]) is reported as 41,739. Also, the Flu in series [1] (setting [8]) is 602. Further, the “Qunt. Yield” value in series [1] (quantum yield, BDNCA library) is on record as 0.08.
